Data published in patent publication US6395740B1, “Calcitonin mimetics” (ZymoGenetics, Inc., priority 1997, dated 2002).
≈ marks a conversion by molar mass, not a printed value.

What was measured:
[1] = tested on: PTH-induced bone resorption in mouse calvariae; assay: Calvarial assay: inhibition of PTH-induced bone resorption (calcium release); type: cell-based; conditions: 1 nM PTH 1-34, 72 hours, read-out: Release of PTH Induced Ca++ IC50
Description: Calvaria from 4-day old neonatal CD-1 mice (pregnant mice received from Charles River Laboratories, Wilmington, Mass.) were trimmed with fine-tipped scissors to leave the parietal regions, including the sagittal suture. These trimmed bones were placed singly per well into 6-well cell culture cluster plates (Costar, Pleasanton, Calif.) with 1 mL/well of growth medium (DMEM, BioWhittaker, Walkersville, Md.) with 4.5 g/L glucose, 0.29 mg/mL L-glutamine, 1 mM sodium pyruvate, 15% heat-inactivated horse serum, and antibiotics (penicillin-G 50 μg/mL, streptomycin 50 μg/mL, and neomycin 100 μg/mL), and rocked gently (RedRocker™, model PR50-115V, Hoefer, San Francisco, Calif.) at 37° C. in a 5% CO2 humidified incubator for 24 hours preincubation.
Following preincubation, medium was removed and replaced with 1.5 mL/well of growth medium containing 1 nM parathyroid hormone (PTH) 1-34 (Sigma) to stimulate bone resorption. For evaluation of the ability of calcitonin mimetics to inhibit PTH induced bone resorption, mimetic compounds in DMSO were added to the growth medium at concentrations ranging from 1-400 μg/mL (final assay concentration of DMSO less than or equal to […]). In each exierimerec human calcitonin (0.02-20 nM, 0.2-2 nM preferred) was added to PTH treated bones as a positive control. […] All control wells contained a final assay concentration of DMSO equal to that present in calcitonin mimetic treated wells.
Five bones were included in each sample group. Bones were incubated for 72 hours following PTH addition to allow resorption of bone to occur. Observations were made of the general appearance, healthiness and number of cells that migrate from the calvaria during the incubation as a possible indication of possible toxicity. Calvaria to be examined histologically were transferred to glass scintillation vials containing 10 mL of 10% neutral buffered formalin. The medium was removed from the wells, and total calcium measurements were made using a Nova 7/7+7 Electrolyte Analyzer (Nova Biomedical, Waltham, Mass.) according to the manufacturer's specifications. Induction of bone resorption by PTH is seen as an increase in the concentration of calcium in the growth medium due to degradation of the bone matrix.

[2] = molecular target: T1, human calcitonin receptor (Homo sapiens, UniProt P30988); assay: CRE-luciferase assay for calcitonin mimetic activity; type: cell-based
T1 construct: expressed in transfected cells; host or cells: BHK (baby hamster kidney) cells, line Hollex-2 (Hollex 1 in the general description)
T1 sequence (P30988 25-474): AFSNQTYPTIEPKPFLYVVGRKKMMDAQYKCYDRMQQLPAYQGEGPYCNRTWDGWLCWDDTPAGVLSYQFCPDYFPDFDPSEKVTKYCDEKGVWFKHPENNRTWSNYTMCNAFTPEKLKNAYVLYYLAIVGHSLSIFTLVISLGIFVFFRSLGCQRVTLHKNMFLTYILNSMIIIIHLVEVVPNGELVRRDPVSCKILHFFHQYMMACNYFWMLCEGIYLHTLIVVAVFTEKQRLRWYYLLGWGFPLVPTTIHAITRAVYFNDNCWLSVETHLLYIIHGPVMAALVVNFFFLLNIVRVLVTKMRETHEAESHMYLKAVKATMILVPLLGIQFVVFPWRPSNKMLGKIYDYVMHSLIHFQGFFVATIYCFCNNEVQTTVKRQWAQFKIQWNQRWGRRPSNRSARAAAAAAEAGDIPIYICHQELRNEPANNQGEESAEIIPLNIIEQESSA
From the text: An alternative assay system (described in WO96/31536 which is incorporated herein in its entirety) involves selection of substances that are able to induce expression of a cyclic AMP response element (CRE)-luciferase reporter gene, as a consequence of elevated cAMP levels, in cells expressing a calcitonin receptor, but not in cells lacking calcitonin receptor expression. Such cells could include, for example, Boris/KS10-3 (expressing hamster calcitonin receptor and a CRE-luciferase reporter gene in baby hamster kidney cells (BHK 570 cells)) or Hollex 1 (expressing human calcitonin receptor and a CRE-luciferase reporter gene in BHK cells, as described in WO96/31536) or KZ10-20-48/pLJ6-4-25, which expresses the human glucagon receptor and a CRE-luciferase reporter gene in BHK cells. The human glucagon receptor is another member of the G-protein-coupled receptor family that transduces signal through adenylate cyclase-mediated elevation of cAMP.
This CRE-luciferase assay measures the end result of a multi-step signal transduction pathway triggered when a calcitonin mimetic stimulates the G-coupled calcitonin receptor. The complexity of this pathway provides multiple mechanisms for induction of luciferase transcription at points that are downstream of the calcitonin receptor, and therefore may not be calcitonin receptor-specific (e.g., forskolin's direct activation of adenylate cyclase). Any response triggered by non-specific inducers is eliminated by counter screening using the calcitonin receptor-negative cell lines described above.
Receptor-positive and -negative cell lines were maintained by serial passage in growth medium (DMEM supplemented with 10% heat-inactivated fetal calf serum (HI-FCS), 2 mM L-glutamine, 1 mM sodium pyruvate, 250 nM MTX, and 1 mg/mL G418). On the day prior to assay, cells were trypsinized, adjusted to 2×10^5 cells/mL in growth medium, plated in opaque white Dynatech Microlite microtiter tissue culture plates at 100 μL/well (2×10^4 cells), and grown overnight to confluence (37° C., 5% CO2 atmosphere)
Test substances were prepared in DMSO at 100 times the final desired assay concentration. Induction was initiated by adding 100 μL/well test substance diluted 1:100 or 1:1000 (only first round screening extracts were diluted 1:100) in assay medium (DMEM supplemented with 10% HI-FCS, 2 mM L-glutamine, 1 mM sodium pyruvate and 20 mM Hepes, pH 7.25). Controls were included on each plate: untreated wells (basal), […] forskolin, and 100 nM human calcitonin. For test substances prepared in DMSO, an equal concentration of DMSO was included in control wells (not to exceed a final assay concentration of 2% DMSO, with a preferred maximum of 1%). Plates were incubated for 3 to 8 hours (4 hours preferred) at 37° C. in an atmosphere of 5% CO2.
Following induction, luciferase activity was measured using a Promega luciferase assay kit (E1500) according to the assay kit protocol. Briefly, assay medium was removed and cells were washed once with phosphate buffered saline (PBS). After the wash, 25 μL of lysis buffer was added to each well, and the plates were incubated for 15 minutes at room temperature. Fifty microliters of Luciferase Assay Substrate (Promega, Corp.) was added to each well and the plates were transferred to a Labsystems Lumiscan microtiter luminometer. The amount of luminescence (relative light units, RLU) was determined by “Fastscan” following a 0.1 second/well integration of signal. Basal (uninduced) luciferase signal was subtracted from all measurements, and the luciferase signal induced by test samples was expressed as a percentage of the signal in the calcitonin and forskolin controls. […]

Compound: COc1cc(CN2CCN(C(=O)Nc3cccc(C(F)(F)F)c3)CC2)ccc1O [Compound 850-0231]
- IC50 [1]: 25 to 50 µg/mL (≈ 61.1 to 122 µM)
- EC50 [2]: 61.1 to 122 µM
